Laboratory results: paper PMC10700596 (Nature Communications, 2023)
Where “and” joins values, the source holds several entries; their conditions need not be identical. Equal values may be shown once.

How the values were obtained:
EP4R R316A mutant = target: T1, EP4R R316A mutant (Homo sapiens, UniProt P35408, R316A); assay: BRET EP4R-arrestin interaction reporter assay, R316A mutant; type: cell-based; settings: agonist mode
T1 construct: expressed in transfected cells; host or cells: HEK cells, transient
Text: three independent experiments. Source data are provided as a Source Data file.
(1 picture or pasted object on this page, not shown here)

EP4R [1] = target: T2, EP4R (Homo sapiens, UniProt P35408); assay: PRESTO-Tango β-arrestin2 recruitment assay; type: cell-based
T2 construct: Tango fusion cassette (only 'tango' is printed); expressed in transfected cells; host or cells: HTLA cells (tTA-dependent luciferase reporter, β-arrestin2-TEV fusion)

wild-type EP4R = wild-type EP4R (Homo sapiens, UniProt P35408); assay: cell-based
[2] = target: T3, Thromboxane A2 (TP) receptor (Homo sapiens, UniProt P21731); assay: Functional cAMP production assay, TP receptor; type: cell-based; settings: agonist alone, replicate columns
T3 sequence (P21731 1-343): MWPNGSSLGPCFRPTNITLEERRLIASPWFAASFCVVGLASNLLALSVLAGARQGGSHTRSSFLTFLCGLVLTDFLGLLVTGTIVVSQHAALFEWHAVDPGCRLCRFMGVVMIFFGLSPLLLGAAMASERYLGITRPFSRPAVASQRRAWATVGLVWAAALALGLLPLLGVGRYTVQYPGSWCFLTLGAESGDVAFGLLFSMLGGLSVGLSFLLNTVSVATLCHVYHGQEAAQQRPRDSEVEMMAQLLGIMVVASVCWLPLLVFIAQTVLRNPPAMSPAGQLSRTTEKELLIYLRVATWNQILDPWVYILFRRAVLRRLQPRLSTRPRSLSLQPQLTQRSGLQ

EP4R [3] = target: T2, EP4R; assay: cell-based
EP4R [4] = target: T2, EP4R; assay: biochemical; type: binding
[5] = target: T4, prostaglandin D2 (PGD2) receptor (Homo sapiens, UniProt Q9Y5Y4); assay: Functional cAMP production assay, PGD2 receptor; type: cell-based; settings: replicate values
T4 sequence (Q9Y5Y4 1-395): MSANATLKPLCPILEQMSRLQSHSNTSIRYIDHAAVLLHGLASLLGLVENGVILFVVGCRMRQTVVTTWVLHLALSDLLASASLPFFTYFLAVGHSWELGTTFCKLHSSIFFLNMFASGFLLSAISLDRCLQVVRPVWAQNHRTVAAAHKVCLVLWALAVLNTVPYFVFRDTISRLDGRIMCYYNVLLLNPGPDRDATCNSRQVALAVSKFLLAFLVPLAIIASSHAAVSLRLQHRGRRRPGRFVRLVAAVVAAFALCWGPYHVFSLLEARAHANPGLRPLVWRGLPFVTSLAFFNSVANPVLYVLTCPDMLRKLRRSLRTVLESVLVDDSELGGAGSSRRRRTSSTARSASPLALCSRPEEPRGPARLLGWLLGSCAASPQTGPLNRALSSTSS

T2 sequence (P35408 whole entry, the tested form may be a part): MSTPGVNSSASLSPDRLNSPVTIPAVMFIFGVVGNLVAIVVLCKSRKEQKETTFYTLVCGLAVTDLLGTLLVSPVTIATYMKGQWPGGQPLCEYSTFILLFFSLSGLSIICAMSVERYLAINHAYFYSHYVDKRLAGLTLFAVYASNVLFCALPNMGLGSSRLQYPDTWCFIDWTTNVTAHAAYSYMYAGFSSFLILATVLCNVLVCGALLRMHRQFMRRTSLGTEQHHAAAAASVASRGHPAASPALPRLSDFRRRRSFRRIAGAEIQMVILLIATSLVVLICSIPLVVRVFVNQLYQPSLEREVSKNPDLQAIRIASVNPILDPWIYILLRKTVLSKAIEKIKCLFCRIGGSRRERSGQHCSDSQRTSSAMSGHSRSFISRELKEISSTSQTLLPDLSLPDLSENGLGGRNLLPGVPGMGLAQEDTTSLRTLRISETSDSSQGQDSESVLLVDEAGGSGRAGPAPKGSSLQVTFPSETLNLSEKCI
wild-type EP4R, sequence (P35408 whole entry): as the sequence (P35408 whole entry, the tested form may be a part) above
T1 sequence (P35408 whole entry R316A): as the sequence (P35408 whole entry, the tested form may be a part) above, with R316A counted along it

Structure (SMILES): CCCCC[C@H](O)/C=C/[C@H]1[C@H](O)CC(=O)[C@@H]1C/C=C\CCCC(=O)O [PGE2, prostaglandin E2, reference compound]
- activation of R316A mutant receptor (EP4R R316A mutant): no longer
- EC80 of PGE2 (EP4R [1]; agonist): 0.008 µM
- EC80 of PGE2 (wild-type EP4R): 0.008 µM

Structure (SMILES): CCCCC[C@H](O)/C=C/[C@@H]1[C@@H](C/C=C\CCCC(=O)O)[C@H]2CO[C@@H]1C2 [Compound U46619]
- Thromboxane Receptor response, U46619 alone ([2]; Log[Drug] -4.52): 101.694 and 84.622 and 99.9733
- Thromboxane Receptor response, U46619 alone ([2]; Log[Drug] -5): 98.3839 and 68.3538 and 108.147 and 95.8866 and 103.858 and 102.233 and 110.843 and 96.4513 and 100.005 and 98.4577 and 94.7206 and 109.077
- Thromboxane Receptor response, U46619 alone ([2]; Log[Drug] -5.52): 90.8596 and 73.8682 and 91.1581 and 74.0123 and 88.5137 and 87.193 and 76.6016 and 83.785 and 87.9816 and 86.9707 and 87.4905
- Thromboxane Receptor response, U46619 alone ([2]; Log[Drug] -6): 73.0479 and 61.333 and 83.5479 and 72.2309 and 75.4547 and 85.5682 and 93.0317 and 74.9476 and 75.1314 and 67.4734 and 82.2643
- Thromboxane Receptor response, U46619 alone ([2]; Log[Drug] -6.52): 53.1945 and 46.9117 and 56.4473 and 51.2866 and 54.1589 and 49.4671 and 53.794 and 49.5996 and 46.1382 and 46.7815 and 52.9845 and 63.6908
- Thromboxane Receptor response, U46619 alone ([2]; Log[Drug] -7): 26.7811 (2×) and 28.7836 and 26.1246 and 27.7368 and 28.2234 and 28.3716 and 27.3608 and 24.4507 and 37.3892
- Thromboxane Receptor response, U46619 alone ([2]; Log[Drug] -7.52): 6.98 and 11.6509 and 14.4408 and 11.9391 and 9.265 and 14.6944 and 12.5961 and 11.3627
- Thromboxane Receptor response, U46619 alone ([2]; Log[Drug] -8): 3.852 and 4.407 and 5.259 and 6.346 and 4.095 and 3.487 and 3.973 and 12.9637 and 7.1283 and 8.507 and 7.772 and 8.062
- Thromboxane Receptor response, U46619 alone ([2]; Log[Drug] -8.52): 0.6979 and 0.4256 and 1.264 and 1.489 and 0.4372 and 0.7674 and -0.6982 and -0.1162 and -0.5757 and -0.4127
- Thromboxane Receptor response, U46619 alone ([2]; Log[Drug] -9): 1.749 and 1.539 and -0.4127 and -0.8139 and 0.03755 and 0.2374 and 1.155 and 2.074 and -0.008962 and 0.4505 and -0.2293

Structure (SMILES): Cc1cc(C(=O)N[C@H]2CC[C@H](C(=O)O)CCC2(F)F)c(C)n1-c1ccccc1 [Compound 83, CC1=CC(C(=O)N[C@H]2CC[C@@H](CCC2(F)F)C(=O)O)=C(C)N1C=3C=CC=CC3]
- Kb (EP4R [3]): > 10 µM
- PRESTO-Tango -logIC50 (EP4R [1]): unstable
- IC50 (EP4R [1]; PRESTO-Tango IC50 (nM)): > 10000 nM
- Ki (EP4R [4]): > 10 µM
- IC50 (wild-type EP4R): 3.39 µM
- Ki (wild-type EP4R): 0.678 µM

Structure (SMILES): CCCCC[C@H](O)/C=C/[C@H]1C(=O)C[C@H](O)[C@@H]1C/C=C\CCCC(=O)O [PGD2]
- Prostaglandin D2 receptor response, drug alone ([5]; Log[Drug] -7): 0.6033 and 0.644 and 0.6961 and 0.6919
- Prostaglandin D2 receptor response, drug alone ([5]; Log[Drug] -7.52): 0.797 and 0.93 and 0.9088 and 0.9243 and 0.8431 and 0.8125 and 0.8754 and 0.8197 and 0.9698 and 0.7088 and 0.7525 and 0.7962
- Prostaglandin D2 receptor response, drug alone ([5]; Log[Drug] -8): 0.9354 and 1 and 1.006 and 1.122 and 0.9207 and 0.9404 and 0.8901 and 0.9489 and 0.8787 and 1.018 and 0.7261 and 1.1394
- Prostaglandin D2 receptor response, drug alone ([5]; Log[Drug] -8.52): 0.9328 and 0.9897 and 1.022 and 0.9062 and 0.7756 and 1.181 and 0.8387 and 1.0826 and 1.099 and 1.025 and 0.9559 and 0.8192
- Prostaglandin D2 receptor response, drug alone ([5]; Log[Drug] -9): 1.112 and 0.9671 and 1.1328 and 0.9787 and 1.031 and 1.15 and 0.9594 and 0.9527 and 0.952 and 0.9619 and 1.007 and 0.8917
- Prostaglandin D2 receptor response, drug alone ([5]; Log[Drug] -9.52): 0.8441 and 1.142 and 1.077 and 0.9738 and 0.9345 and 0.9535 and 0.9143 and 1.094 and 0.8709 and 1.005 and 0.9652 and 0.9465
- Prostaglandin D2 receptor response, drug alone ([5]; Log[Drug] -10): 1.003 (2×) and 1.01 (2×) and 1.029 and 0.9872 and 0.9954 and 1.0644 and 0.8654 and 0.9098 and 1.022 and 1.061
- Prostaglandin D2 receptor response, drug alone ([5]; Log[Drug] -10.52): 0.9812 and 1.108 and 1.015 and 0.9787 and 0.8969 and 1.051 and 1.01 and 0.8703 and 1.02 and 1.075 and 0.9632 and 0.9209
- Prostaglandin D2 receptor response, drug alone ([5]; Log[Drug] -11): 0.9785 and 0.8795 and 0.9671 and 1.005 and 0.997 and 1.114 and 0.9736 and 1.021 and 1.027 and 1.076 and 1.172 and 1.01
